Laboratory results published in patent US20060234987A1, “Neuroprotective benzo 1 3 oxathiol 2 ones” (priority 2003, published 2006).

Columns and labels:
[1] = Conversion of esters and carbamates to phenol in microsomal fractions; type: in vitro ADME; settings: incubated with microsomal fractions, standard conditions
Experimental: The phenolic moiety observed in many of the compounds represented by Formula I may be converted to esters, carbamates, thiocarbamates and sulfonates. The Applicant has shown that both esters and carbamates are rapidly converted to the corresponding phenol when incubated in the presence of microsomal fractions using standard conditions (Cresteil, T., et al. Am. Soc. Pharm. Exper. Therapeutics, 2002, 30, 438-445). These microsomal fractions contain various active esterase and P450 oxidative enzymes. […] Esters and carbamates of this type allow for the preparation of various novel pro-drugs which display increased water solubility, stability, formulation, and pharmacokinetic profiles. The carbamates disclosed in U.S. Pat. No. 4,349,685 are limited to lower alkyl, substituted aryl, haloalkyl, carbalkoxyalkene or an alkyl carbonyloxyalkylene group. The preferred embodiments of this disclosure include esters and carbamates represented by Formula I, where the carbamate or ester moiety includes substituted lower alkyl, heteroaryl, substituted heteroaryl moieties which contain a basic nitrogen, capable of increasing the water solubility of said compound via an acid/base salt (typified by compounds 55 and 61).

SCG neurons [2] = assay: In vitro protection of SCG neurons from Taxol killing; type: cell-based, Sprague Dawley rats; settings: Rattus norvegicus, Neuron; Taxol 50 ng/mL, 48 hours, MTS viability; read-out: IC50, rescue from Taxol killing of SCG neurons
Excerpt: Taxol™ is regularly used in the treatment of breast and other cancers. Taxol™ binds to the cyto-skeletal protein tubulin, thereby inhibiting normal microtubular […] and inducing cellular apoptosis. Despite its potency as an anti-tumour agent, Taxol™ is also toxic to neurons, inducing dose limiting peripheral neuropathies. The addition of Taxol™ to cultured SCG neurons induces the degradation or loss of upwards of 80% of the neurons. The addition of selected compounds of Formula I to the cellular media, concurrently with Taxol™, protects upwards of 100% of the neurons, at drug concentrations ranging from 3 to 50 μM (see Example 63).
In Vitro Protection of SCG neurons from Taxol killing. SCG neurons were isolated from day 1 neonatal Sprague Dawley rats, plated at a cell density of 10,000 cells/well, and incubated in Biowhittaker Ultraculture containing 1% Penstrep, 1% L-glutamine, 0.7% ARAC, 3% rat serum, and NGF (50 ng/mL, Calomone Labs) at 37° C., under a 5% CO2 atmosphere. After 5 days the cells were treated with compound and Taxol™ (50 ng/mL). Viability of neurons was assessed 48 hours later using MTS (Promega) staining. Table 4 summarizes selected IC50 values from compounds tested using this protocol. Also, see FIG. 1 for compound protection against Taxol killing.

SCG neurons [3] = assay: Protection of SCG neurons from anti-NGF killing; type: cell-based, Sprague Dawley rats; settings: Rattus norvegicus, Neuron; anti-NGF antibody, 48 hours, Alamar Blue viability; read-out: IC50, rescue from anti-NGF killing of cultured SCG neurons
Experimental: Neurotrophins are critical to the growth, development, and survival of small fiber neurons of the PNS. SCG neurons are neurons of the PNS that undergo apoptosis upon NGF withdrawal. In a typical experiment SCG neurons are cultured in the presence of NGF, which induces survival and neurite out-growth. After 5 days the NGF is removed by either the addition of anti-NGF polyclonal antibody (Sigma) or by repeated washings (4 times) with NGF free media, resulting in the apoptosis of up to 90% of the neurons after 48 hours, as measured by MTS staining. The addition of selected compounds of Formula I to the final cellular media provides upwards of 100% protection, at drug concentrations ranging from 10 to 50 μM (see Example 62).
Protection of SCG neurons from anti-NGF killing. SCG neurons were isolated from day 1 neonatal Sprague Dawley rats, plated at a cell density of 5,000 cells/well, and incubated in Biowhittaker Ultraculture containing 1% Penstrep, 1% L-glutamine, 0.7% ARAC, 3% rat serum, and NGF (50 ng/mL, Calomone Labs), at 37° C., under a 5% CO2 atmosphere. After 4 days the cells were treated with anti-NGF antibody (Sigma). At this time compound was added and the cells were maintained serum and NGF free for 48 hours, at which time viability of the neurons was assessed using Alamar Blue (Medicorp) staining. Table 3 summarizes selected IC50 values from compounds tested using this protocol.

In the case of `O=C(Oc1cc(-c2ccc(-c3ccccc3)cc2)c2oc(=O)sc2c1)c1cccnc1` [Compound 55, 5-(3-pyridylcarbonyloxy)-7-biphenylbenzo[1,3]oxathiol-2-one], the “conversion to parent phenol in microsomal fractions” value [1] is reported as “rapidly converted to their parent phenols”, the IC50 (SCG neurons [2]) is reported as 2 µM and the IC50 (SCG neurons [3]) is reported as 7 µM.
